This note sets out measurements from PMC8780978, “Antiplatelet and Antithrombotic Effects of Isaridin E Isolated from the Marine-Derived Fungus via Downregulating the PI3K/Akt Signaling Pathway” (Marine Drugs, 2021).

The data set is described as follows: Tail-bleeding assay. The settings on record: 10 mg/kg, single intragastric dose 3 h before, n = 5 mice. On the procedure: Mice were assigned randomly to […] and intragastrically administrated with a single dose of vehicle, isaridin E (12.5, 25, 50, or 100 mg/kg), or clopidogrel (10 mg/kg) at 3 h before the cutting-tail experiment. Tails were transected at a distal margin of 5 mm and were immediately immersed into 10 mL of saline at 37 °C. The bleeding time was recorded as when the observed bleeding ceased.

Consider `COC(=O)[C@H](c1ccccc1Cl)N1CCc2sccc2C1` [clopidogrel, reference compound], for which the “tail bleeding time versus vehicle control” value is “significantly increased”.
